# Tests used:
# Type in all cases: cell-based, human
# [1] = test system: primary fibroblasts from RDEB patients (RDEB-FBs); experiment: Type I collagen degradation assay; conditions: presence of TGF-β1, PF-03084014 5 μM, DAPT 20 μM
# Protocol: The ability of RDEB-FBs to degrade a thin film of type I collagen (COL1) was assessed as previously described. Briefly, COL1 from calf hides (Symatese, Chaponost, France), was diluted at a concentration of 375 μg/ml in 13 mM hydrochloric acid. Diluted COL1 solution was rapidly mixed on ice with one quarter-volume of a neutralizing phosphate buffer (20 ml of 0.2 M NaH2PO4 pH 7.5, 20 ml 0.1 M NaOH, 4.15 ml 5 M NaCl) and gently dispensed into 24-well plates. COL1 gelation was obtained maintaining COL1-coated plates at 37° C. for 2 h. COL1 gels were dehydrated overnight in a laminar flow hood, washed with sterile water and PBS containing Penicillin/Streptomycin. Then, a droplet of complete medium containing 12.500 RDEB-FBs was gently poured in the center of the well, and cells were allowed to adhere in a humidified chamber for 3 h. […] At the end of the incubation period, RDEB-FBs were detached by trypsin/EDTA and counted to be sure to evaluate collagenolytic activity of the same number of cells per condition. The residual COL1 film was stained for 15 min with a solution of Coomassie Brilliant Blue R-250 Dye (Thermo Fisher Scientific), the excess of stain was removed with a destain solution (30% ethanol, 7.5% CH3COOH). Images were acquired with a 10× objective.
# [2] = test system: α-SMA, TAGLN, CNN1, JAG1; experiment: Immunoblotting of myofibroblast/fibrotic markers in RDEB fibroblasts; conditions: RDEB-FBs, 24 h, absence and presence of TGF-β1
# Source text: Whole-cell lysates were obtained in radioimmunoprecipitation assay (RIPA) buffer (Sigma-Aldrich) supplemented with phosphatase- and protease inhibitors (Merck). Different amounts of protein lysates were run under reducing conditions by using 4-12% gradient precast gels (Thermo Fisher Scientific) or hand-casting polyacrylamide gels (4-8%), depending on the protein to be assayed. Amersham™ Protran® Premium nitrocellulose membranes (pore size 0.2 μm) (Merck) were immunoblotted with primary antibodies indicated in Table 3 and incubated with horseradish peroxidase-linked secondary antibodies.
# Detection was performed using Cytiva ECL™ Prime Western Blotting System (Merck) or SuperSignal West Femto (Thermo Fisher Scientific), depending on the protein to be assayed. Antibody against Notch1 (all forms; clone bTAN20) was obtained from the Developmental Studies Hybridoma Bank (DSHB) at the University of Iowa (DSHB, Iowa City, IA, USA). GAPDH (clone 14C10), Jagged1 (clone 28H8) and NOTCH1 intracellular domain (clone D3B8) were obtained from Cell Signaling (Cell Signaling Technology Inc., Beverly, MA, USA). Antibodies against TAGLN (clone #859112) and CNN1 (clone #836701) were from R&D Systems (R&D Systems, Inc. Minneapolis, MN, USA). Antibody against α-SMA (clone 1A4) was purchased from Sigma-Aldrich. Antibody against lamin B1 (LMNB1) was from Abcam (Cambridge, UK). […]
# [3] = test system: α-SMA, CNN1, TAGLN, JAG1, HES1, POSTN, Pri-miR-143/145 mRNA; experiment: Real-time PCR of contractile/fibrotic markers in RDEB fibroblasts; conditions: RDEB-FBs
# Source text: Total was extracted by TRIzol (Thermo Fisher Scientific) by monolayer fibroblast cultures, following manufacturer's instructions. RNA was reverse transcribed and amplified by using Power SYBR Green RNA-to-Ct 1-Step Kit (Thermo Fisher Scientific) on QuantStudio™ 7 Pro Real-Time PCR System (Thermo Fisher Scientific). Primer pairs used in this study are listed in Table 2: ACTA2, actin alpha 2, smooth muscle; CNN1, calponin; COL1A1, collagen type I alpha 1 chain; GAPDH, glyceraldehyde-3-phosphate dehydrogenase; HES1, hes family bHLH transcription factor 1; JAG1, jagged canonical Notch ligand 1; NOTCH1, notch receptor 1; POSTN, periostin; TAGLN, transgelin.
# Relative mRNA expression levels were measured by the 2−ΔΔCT method. Hypoxanthine phosphoribosyltransferase 1 (HPRT1) was used as housekeeping gene to normalize mRNA expression levels.
structure (smiles),measurement,setting,value
"CCC[C@H](N[C@H]1CCc2cc(F)cc(F)c2C1)C(=O)Nc1cn(C(C)(C)CNCC(C)(C)C)cn1 [PF-03084014, (S)-2-((S)-5,7-difluoro-1,2,3,4-tetrahydronaphthalen-3-ylamino)-N-(1-(2-methyl-1-(neopentylamino)propan-2-yl)-1H-imidazol-4-yl)pentanamide]",type I collagen degradation areas,[1],increased number and size of collagen degradation areas
same,protein levels of contractile and fibrotic markers (immunoblotting),[2],"down-regulation of the prototypical contractile and fibrotic markers, including JAG1"
same,"mRNA levels of HES1, periostin and Pri-miR-143/145",[3],context-dependent downregulation
same,mRNA levels of contractile/fibrotic markers (real-time PCR),[3]; basal conditions and presence of TGF-β1,"down-regulation of a selection of contractile/fibrotic markers, including α-SMA, CNN1, TAGLN and JAG1"

# — patent US20260060960A1, “GAMMA-SECRETASE INHIBITORS FOR USE IN THE TREATMENT OF INHERITED EPIDERMOLYSIS BULLOSA” (OSPEDALE PEDIATRICO BAMBINO GESU', priority 2022, published 2026)
